Reference: publication doi:10.1101/2023.05.15.540887, “Comparative analysis of drug-like EP300/CREBBP acetyltransferase inhibitors” (bioRxiv, 2023)
Where two headings read alike, the source gives them in different places.

Legend:
Assay in all cases: NCI-60 growth inhibition (sulforhodamine B)
MDA-MB-468 = settings: Homo sapiens
SK-OV-3 = type: cell-based; settings: Homo sapiens, SK-OV-3, Ovarian Cancer, negative log of Molar value, LCONC -8, EXPID 2301NS84
MOLT-4 = type: cell-based, human; settings: MOLT-4 (Leukemia), negative log of Molar conc., LCONC -8
CCRF-CEM = type: cell-based, human; settings: CCRF-CEM (Leukemia), negative log of Molar conc., LCONC -8
HCT-116 = type: cell-based, human; settings: HCT-116 (Colon Cancer), negative log of Molar conc., LCONC -8
TK-10 = type: cell-based; settings: Homo sapiens, TK-10, Renal Cancer, negative log of Molar value, LCONC -8, EXPID 2301NS84
SF-268 = type: cell-based, human
KM12 = type: cell-based, human; settings: KM12 (Colon Cancer), negative log of Molar conc., LCONC -8
PC-3 = type: cell-based; settings: Homo sapiens, PC-3, Prostate Cancer, negative log of Molar value, LCONC -8, EXPID 2301NS84
SNB-75 = type: cell-based, human; settings: SNB-75 (CNS Cancer), negative log of Molar conc., LCONC -8
[1] = Homo sapiens, read-out: GI50 NLOGVALUE
[2] = Homo sapiens, read-out: IC50 NLOGVALUE (converted)
[3] = Homo sapiens, read-out: LC50 NLOGVALUE
[4] = Homo sapiens, read-out: GI50 NLOGVALUE (converted)

C[C@H](CN[C@@H](C(=O)Nc1ccc(-c2cnn(C)c2)cn1)c1ccccc1)c1ccc(C#N)cc1 [CPI-1612]
GI50 (MDA-MB-468; MDA-MB-468, read-out: GI50 NLOGVALUE): < 0.01 µM | IC50 (MDA-MB-468; MDA-MB-468, read-out: IC50 NLOGVALUE): > 100 µM | GI50 (SK-OV-3; read-out: GI50 NLOGVALUE): > 100 µM | IC50 (SK-OV-3; read-out: IC50 NLOGVALUE): > 100 µM | CC50 (SK-OV-3; read-out: LC50 NLOGVALUE): > 100 µM | GI50 (MOLT-4; [1]): < 0.01 µM | IC50 (MOLT-4; [2]): 0.0209 µM | TGI NLOGVALUE (MOLT-4): 4.53 | TGI NLOGVALUE (CCRF-CEM): 4 | GI50 (CCRF-CEM; [1]): < 0.01 µM | IC50 (CCRF-CEM; [2]): 0.135 µM | CC50 (CCRF-CEM; [3]): > 100 µM | TGI NLOGVALUE (HCT-116): 4 | GI50 (HCT-116; [4]): 11.2 µM | IC50 (HCT-116; [2]): 18.6 µM | CC50 (HCT-116; [3]): > 100 µM | GI50 (TK-10; read-out: GI50 NLOGVALUE (converted)): 0.132 µM | IC50 (TK-10; read-out: IC50 NLOGVALUE): > 100 µM | CC50 (TK-10; read-out: LC50 NLOGVALUE): > 100 µM | GI50 (SF-268; Homo sapiens, SF-268, read-out: GI50 AVGDATA (converted)): 0.676 µM | GI50 (SF-268; Homo sapiens, SF-268 (CNS Cancer), negative log of Molar conc., LCONC -8, read-out: GI50 NLOGVALUE (converted)): 0.692 µM | IC50 (SF-268; Homo sapiens, SF-268 (CNS Cancer), negative log of Molar conc., LCONC -8, read-out: IC50 NLOGVALUE (converted)): 79.4 µM | CC50 (SF-268; Homo sapiens, SF-268 (CNS Cancer), negative log of Molar conc., LCONC -8, read-out: LC50 NLOGVALUE): > 100 µM | TGI NLOGVALUE (SF-268; SF-268 (CNS Cancer), negative log of Molar conc., LCONC -8): 4 | GI50 (KM12; [4]): 0.204 µM | IC50 (KM12; [2]): 3.24 µM | CC50 (KM12; [3]): > 100 µM | TGI NLOGVALUE (KM12): 4 | GI50 (PC-3; read-out: GI50 NLOGVALUE): < 0.01 µM | IC50 (PC-3; read-out: IC50 NLOGVALUE (converted)): 0.447 µM | CC50 (PC-3; read-out: LC50 NLOGVALUE): > 100 µM | GI50 (SNB-75; [1]): > 100 µM | IC50 (SNB-75; Homo sapiens, read-out: IC50 NLOGVALUE): > 100 µM | CC50 (SNB-75; [3]): > 100 µM | TGI NLOGVALUE (SNB-75): 4
